One experiment has as its system NLRP6 inflammasome. As to the kind of experiment: Colon explants cultured with metabolites (IL-18 ELISA, caspase-1 immunoblot, gene expression). The class given is cell-based, mouse. The note with it: colon explants incubated for 24 hrs, compared with spermine. On the procedure: Colons were excised and washed thoroughly with PBS, homogenized in RIPA buffer containing protease inhibitors, incubated for 20 min in 4° C. and centrifuged for 20 min, 14,000 rpm at 4° C. Samples were separated on 15% acrylamide gels and transferred onto nitrocellulose membranes. Western blot analysis was performed using anti-caspase 1 p20 polyclonal antibody (Adipogen, AG-20B-0042B-C100) and Goat anti mouse antibody (Jackson ImmunoResearch, 115-035-003). Band density was calculated using ImageJ software. Colon pieces, 0.5 cm long, from the proximal colon were removed, rinsed with PBS, and weighed. The tissue explants were cultured for 24 hrs in DMEM medium containing 10% FBS, L-glutamine, penicillin, and streptomycin at 37° C. Culture medium was collected, centrifuged and the resulting supernatant stored in aliquots at -20° C. Concentrations of IL-18 in the serum or culture supernatants were measured using ELISA. […] Samples were then washed and plates were incubated with anti-mouse IL-18-biotin antibody ([…]-6 MBL) for 1 hour and HRP-Avidin (BioLegend) for 1 hour before quantification. […] For AMP induction in-vitro, 3 μg IL-18 were added to colon explants for 7 hours, then the explants were maintained in RNAlater and RNA was extracted. Tissues were preserved in RNAlater solution (Ambion) and subsequently homogenized in Tri Reagent (Fox et al.). RNA was purified according to the manufacturer's instructions. Two microgram of total RNA was used to generate cDNA (HighCapacity cDNA Reverse Transcription kit; Applied Biosystems). RealTime-PCR was performed using gene-specific primer/probe sets (Applied Biosystems) and Kapa Probe Fast qPCR kit (Kapa Biosystems) on a Viia7 instrument (Applied Biosystems). PCR conditions were 95° C. for 20 s, followed by 40 cycles of 95° C. for 3 s and 60° C. for 30 s. Data were analyzed using the deltaCt method with hprt serving as the reference housekeeping gene.

The subject of the next experiment is DSS colitis. As to the kind of experiment: DSS colitis. The class given is in vivo, mouse. The following applies: Asc-/- mice, IL-18 i.p. prior to induction of DSS colitis. On the procedure:
(§1) For IL-18 rescue experiments, recombinant IL-18 (MBL, Cat#B004-2) was injected intraperitoneally at a concentration of 1 μg per mouse for 5 days, and not injected for 2 days prior to DSS treatment. IL-18 injection to Swiss Webster germ-free mice and Nlrp6^−/− mice was performed twice a day for 3 days, while the mice were kept sterile using a cage-autonomous system (Hecht et al., 2014).
Mice were treated with 1.5% (w/v) DSS (M.W.=36,000-50,000 Da; MP Biomedicals) in their drinking water for 7 days followed by regular access to water. The animals were weighed daily and monitored for signs of distress as well as rectal bleeding.
For DSS rescue experiments, mice were receiving taurine in the drinking water prior to DSS treatment in a concentration of 100 mg/ml for 14 days.
Colonoscopy was performed using a high-resolution mouse video endoscopic system (Carl Storz, Tuttlingen, Germany). The severity of colitis was blindly scored using MEICS (Murine Endoscopic Index of Colitis Severity), which is based on five parameters: granularity of mucosal surface; vascular pattern; translucency of the colon mucosa; visible fibrin; and stool consistency (Becker et al., 2006).
On the day of the assay, 4 kDa fluorescein isothiocyanate (FITC)-dextran was dissolved in phosphate buffered saline (PBS) to a concentration of 80 mg ml^−1. Mice were fasted for 4 hours prior to gavage with 150 μl dextran. Mice were anesthetized 3 hours following gavage and blood was collected, centrifuged at 1,000×g for 12 min at 4° C. Serum was collected and fluorescence was quantified at an excitation wavelength of 485 nm and 535 nm emission wavelength.
DNA was extracted from liver samples (using MoBio PowerSoil kit). DNA concentration was calculated using a standard curve of known DNA concentrations from E. coli K12. 16S qPCR using primers identifying different regions of the V6 16S gene was performed using Kappa SYBR fast mix.
Absolute number of bacteria in the samples was then approximated as DNA amount in a sample/DNA molecule mass of bacteria.

A further experiment has as its system intestinal microbiota. As to the kind of experiment: In-vivo injection of recombinant IL-18, 16S microbiota analysis. On the set-up: species or system mouse. On the procedure: as §1
Frozen fecal samples were processed for DNA isolation using the MoBio PowerSoil kit according to the manufacturer's instructions. For the 16S rRNA gene PCR amplification, ing of the purified fecal DNA was used for PCR amplification. Amplicons spanning the variable region 1/2 (V1/2) of the 16S rRNA gene were generated by using the following barcoded primers: Fwd 5′-XXXXXXXXAGAGTTTGATCCTGGCTCAG-3′ (SEQ ID NO: 1), Rev 5′-TGCTGCCTCCCGTAGGAGT-3′ (SEQ ID NO: 2), where X represents a barcode base. The reactions were subsequently pooled and cleaned (PCR clean kit, Promega), and the PCR products were then sequenced on an Illumina MiSeq in 500 bp paired-end method. The reads were then processed using the QIIME (Quantitative Insights Into Microbial Ecology, www(dot)qiime(dot)org) analysis pipeline as described (Caporaso et al., 2010; Elinav et al., 2011). In brief, fasta quality files and a mapping file indicating the barcode sequence corresponding to each sample were used as inputs, reads were split by samples according to the barcode, taxonomical classification was performed using the RDP-classifier, and an OTU table was created. Closed-reference OTU mapping was employed using the Greengenes database. Rarefaction was used to exclude samples with insufficient count of reads per sample. Sequences sharing 97% nucleotide sequence identity in the V2 region were binned into operational taxonomic units (97% ID OTUs). For beta-diversity, weighted unifrac measurements were plotted according to the two principal coordinates based on 1,000 reads per sample. The OTU tables used for our analyses are made accessible online.

Experiment [1] relates to colonic AMPs. Description: IL-18 added to germ-free colon explants, AMP induction in-vitro. The class given is cell-based, mouse. The note with it: GF colon explants, sterile conditions. On the procedure:
Colon explants were incubated with 70 mM of taurine (Sigma Aldrich, T0625), histamine (Sigma Aldrich, H7125) or spermine (Sigma Aldrich, S3256) for 24 hours. For AMP induction in-vitro, 3 μg IL-18 were added to colon explants for 7 hours, then the explants were maintained in RNAlater and RNA was extracted.
(§2) Tissues were preserved in RNAlater solution (Ambion) and subsequently homogenized in Tri Reagent (Fox et al.). RNA was purified according to the manufacturer's instructions. Two microgram of total RNA was used to generate cDNA (HighCapacity cDNA Reverse Transcription kit; Applied Biosystems). RealTime-PCR was performed using gene-specific primer/probe sets (Applied Biosystems) and Kapa Probe Fast qPCR kit (Kapa Biosystems) on a Viia7 instrument (Applied Biosystems). PCR conditions were 95° C. for 20 s, followed by 40 cycles of 95° C. for 3 s and 60° C. for 30 s. Data were analyzed using the deltaCt method with hprt serving as the reference housekeeping gene.

In experiment [2] the test system is colonic AMPs. Description: In-vivo injection of recombinant IL-18, colonic IL-18 and AMP levels. On the set-up: species or system mouse. On the procedure: as §1
Concentrations of IL-18 in the serum or culture supernatants were measured using ELISA. Plates were coated over night with IL-18 (MBL, B004-2), incubated for 4 hours with supernatant or serum. Samples were then washed and plates were incubated with anti-mouse IL-18-biotin antibody (D048-6 MBL) for 1 hour and HRP-Avidin (BioLegend) for 1 hour before quantification.
as §2

Another experiment relates to microbiota. Description: Ang4 in-vitro culture of stool microbiota under anaerobic conditions. On the set-up: species or system mouse. On the procedure:
Murine Ang4 was expressed in E. coli and purified as previously described (Holloway et al, 2001). Stool pellets were collected and cultured in anaerobic conditions for 8 hours with rAng4, centrifuged and further analyzed using 16S rRNA sequencing.
Frozen fecal samples were processed for DNA isolation using the MoBio PowerSoil kit according to the manufacturer's instructions. For the 16S rRNA gene PCR amplification, ing of the purified fecal DNA was used for PCR amplification. […] The reads were then processed using the QIIME (Quantitative Insights Into Microbial Ecology, www(dot)qiime(dot)org) analysis pipeline as described (Caporaso et al., 2010; Elinav et al., 2011). In brief, fasta quality files and a mapping file indicating the barcode sequence corresponding to each sample were used as inputs, reads were split by samples according to the barcode, taxonomical classification was performed using the RDP-classifier, and an OTU table was created. […] Rarefaction was used to exclude samples with insufficient count of reads per sample. […] For beta-diversity, weighted unifrac measurements were plotted according to the two principal coordinates based on 1,000 reads per sample. […]

The mark [3] stands for this setting: GF Nlrp6-/- mice, sterile administration.
[4] abbreviates: mice lacking NLRP6, ASC, or caspase-1/11.

The values that follow come from patent US20190382827A1, “USE OF MICROBIAL METABOLITES FOR TREATING DISEASES” (Yeda Research and Development Co. Ltd., priority 2015, published 2019).

With `NCCCCN` [putrescine], in the experiment with NLRP6 inflammasome, the “IL-18 in colon explants” value was “equally suppressed”.
On to “IL-18: recombinant IL-18 (MBL, Cat#B004-2)”, for which, in the experiment on DSS colitis, the colitis severity entry is recorded as “diminished”, the colonoscopy score entry is listed as “improved” and the weight loss result is “reduced”. Besides, the microbiota configuration result in the experiment on intestinal microbiota (Asc- and Caspase-1/11-deficient mice) is reported as “significant configuration changes”. In addition, in the experiment on intestinal microbiota (Caspase-1/11-/- mice), the “aberrant microbiota composition, beta- and alpha-diversity” value is reported as “corrected”. Also, the “abundance of multiple commensal bacteria” value in the experiment on intestinal microbiota (Caspase-1/11-/- mice, relative to WT levels) is reported as “restored”. For the same molecule, in the experiment with intestinal microbiota (Nlrp6-/- mice), the microbial community composition entry is on record as “marked compositional changes”. Besides, the microbiota composition result with intestinal microbiota (WT mice) is on record as “not affected”. For the same molecule, the “dominant transmission of the dysbiotic microbiota configuration” value in the experiment on intestinal microbiota (WT recipients cohoused with inflammasome-deficient mice) is recorded as “prevented”. For the same molecule, in the experiment on intestinal microbiota (grWT(Asc-/-) mice injected with IL-18), the “UniFrac distance to cohousing partners” value is given as “increased”. For the same molecule, in the experiment on colonic AMPs [1], the “levels of colonic AMPs” value is reported as “restored normal levels”. Also, in the experiment on colonic AMPs [2] (setting [3]), the Ang4 entry is listed as “induced” and the “defect in secretion of mature IL-18 protein” value is “rescued this defect”. Also, the “levels of colonic AMPs” value with colonic AMPs [2] (WT GF mice, in-vivo administration) is reported as “restored normal levels”. In the experiment with colonic AMPs [2] (setting [4]), the AMP levels entry was “restored” and the IL-18 levels result is on record as “restored”.

B1: Ang4: Murine Ang4 expressed in E. coli and purified; antimicrobial peptide (protein, UniProt Q3TMQ6 25-144, looked up)
Angiogenin-4: QNERYEKFLRQHYDAKPNGRDDRYCESMMKERKLTSPCKDVNTFIHGTKKNIRAICGKKGSPYGENFRISNSPFQITTCTHSGASPRPPCGYRAFKDFRYIVIACEDGWPVHFDESFISP
For the molecule B1, in the experiment with microbiota (anaerobic in-vitro microbiome cultures of Asc-/- mice), the beta- and alpha-diversity result is “partially restored”. Besides, the “impact on overall community composition” value in the experiment on microbiota (microbiota from Asc-/- mice compared with WT mice) is “greater”.
